According to US20260085058A1, “DEGRADERS OF SON OF SEVENLESS HOMOLOG 1” (H. LEE MOFFITT CANCER CENTER AND RESEARCH INSTITUTE, INC., priority 2022, published 2026):

Columns and labels:
[1] = target: T1, SOS1 (Homo sapiens, UniProt Q07889); experiment: SOS1 degradation by immunoblot in colorectal cancer cell lines; assay type: cell-based; set-up: endogenous in cells; host or cells: SW620, HCT116, C2BB, SW1417
T1 sequence (Q07889 1-1333): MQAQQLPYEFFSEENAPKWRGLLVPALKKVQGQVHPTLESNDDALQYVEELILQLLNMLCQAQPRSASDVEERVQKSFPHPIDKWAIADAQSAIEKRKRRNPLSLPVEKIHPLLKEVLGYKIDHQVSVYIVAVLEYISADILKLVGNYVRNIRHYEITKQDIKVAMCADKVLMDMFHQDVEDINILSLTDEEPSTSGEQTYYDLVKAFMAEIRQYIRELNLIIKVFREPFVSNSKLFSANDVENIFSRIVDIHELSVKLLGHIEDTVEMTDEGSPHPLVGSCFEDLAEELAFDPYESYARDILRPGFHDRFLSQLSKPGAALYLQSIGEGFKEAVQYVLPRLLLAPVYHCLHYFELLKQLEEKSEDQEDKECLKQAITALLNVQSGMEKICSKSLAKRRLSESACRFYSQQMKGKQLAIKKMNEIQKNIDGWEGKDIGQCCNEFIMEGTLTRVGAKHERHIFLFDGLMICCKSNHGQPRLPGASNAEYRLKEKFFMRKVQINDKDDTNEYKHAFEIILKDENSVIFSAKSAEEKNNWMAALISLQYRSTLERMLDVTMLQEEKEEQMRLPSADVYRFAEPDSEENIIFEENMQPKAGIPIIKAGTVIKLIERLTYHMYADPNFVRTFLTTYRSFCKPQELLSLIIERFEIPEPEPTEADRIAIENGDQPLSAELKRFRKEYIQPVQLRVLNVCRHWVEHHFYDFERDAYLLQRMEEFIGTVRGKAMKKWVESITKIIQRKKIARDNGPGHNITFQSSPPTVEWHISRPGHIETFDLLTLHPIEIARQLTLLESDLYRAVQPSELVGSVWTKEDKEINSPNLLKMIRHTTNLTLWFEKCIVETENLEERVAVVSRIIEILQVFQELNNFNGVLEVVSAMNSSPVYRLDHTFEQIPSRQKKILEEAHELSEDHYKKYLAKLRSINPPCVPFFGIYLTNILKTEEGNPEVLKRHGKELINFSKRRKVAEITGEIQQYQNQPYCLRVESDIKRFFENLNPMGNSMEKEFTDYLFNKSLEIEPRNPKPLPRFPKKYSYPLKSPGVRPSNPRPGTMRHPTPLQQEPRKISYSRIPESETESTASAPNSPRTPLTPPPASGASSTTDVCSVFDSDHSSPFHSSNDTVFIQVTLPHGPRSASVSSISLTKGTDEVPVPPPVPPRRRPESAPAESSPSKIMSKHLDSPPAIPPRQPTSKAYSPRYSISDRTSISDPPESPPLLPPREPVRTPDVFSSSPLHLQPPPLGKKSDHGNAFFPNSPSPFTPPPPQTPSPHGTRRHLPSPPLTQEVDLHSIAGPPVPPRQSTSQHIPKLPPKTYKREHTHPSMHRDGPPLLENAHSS
Description: SW620, HCT116, C2BB, and SW1417 were purchased from the American Type Culture Collection. […] They were incubated under a 5% (v/v) CO2 atmosphere at 37° C.
Cells were plated in a 100 mm dish for incubation overnight before harvest for immunoblot. For drug treatment, cell confluency was checked prior to proceeding with the treatment. […] Approximately 40 μg protein samples were loaded into each well and separated by SDS-PAGE gel. After protein transfer onto nitrocellulose membranes, 5% skim milk in TBST was used to block the membranes for 1 hour at room temperature prior to incubation with primary antibodies overnight at 4° C. At the completion, a horseradish peroxidase-conjugated secondary antibody was applied at room temperature for 1 hour. The bands were visualized using Western Lightning Plus-ECL (PerkinElmer).

[2] = target: T1, SOS1; experiment: Immunohistochemical staining of SOS1 on CRC patient-derived organoids; assay type: cell-based; set-up: endogenous in cells; host or cells: CRC patient-derived organoids MCC19990-002, MCC19990-010, MCC19990-013; details: MCC19990-002, MCC19990-010, MCC19990-013 PDOs, 1 μM, 24 hours, vs DMSO
Description: To one or two confluent wells of organoids was added 1:5 diluted 500 μL of 5 units/mL dispase in HBSS (StemCell: 07913) and incubated at 37° C. in 5% CO2 atmosphere. Organoids were harvested and transferred to a 1.5 mL Eppendorf tube. The pellet was collected after centrifugation at 1500 rpm for 6 min, and washed with 1×PBS. The pellet was resuspended in 1 mL of 4% PFA and incubated at 4° C. overnight. The pellet was resuspended in 100 μL of 37° C. warmed histogel, centrifuged at 1000 rpm for 30 seconds to settle the organoids. The gel was allowed to polymerize at 4° C. for 10 minutes and then the plug was transferred to a 5 mL tube containing 2 mL 70% ethanol, and sent to the histology lab. Organoids were paraffin-embedded and subjected to serial sections for hematoxylin and eosin staining and immunohistochemistry following a common procedure at the histology lab. The slides/sections were cut at 4 micron thickness using a Leica RM2245 microtome. Charged slides were used.
Immunohistochemical staining of SOS1 on organoids: Slides were stained using a Ventana Discovery Ultra automated system (Ventana Medical Systems, Tucson, AZ) as per manufacturer's protocol with proprietary reagents. Briefly, slides were deparaffinized on the automated system with Discovery Wash Solution (Ventana). Heat-induced antigen retrieval method was used in Cell Conditioning 1 Mild (Ventana). […]

SOS1 degradation in other CRC cell lines ([1]; HCT116, C2BB and SW1417 cells, different concentrations, 24 hours): concentration-dependent | SOS1 degradation after cycloheximide pretreatment ([1]; SW620 cells pre-treated with cycloheximide 100 μg/mL for 1 hour, then 1 μM P7, starting at 3 hours and sustained): more than 75% | SOS1 degradation by P7 after pretreatment with competitors/pathway inhibitors ([1]; SW620 cells pretreated 1 hour with BI3406 10 μM, lenalidomide 10 μM, MLN4924 0.5 μM or MG132, then P7 1 μM 24 h): lack of significant SOS1 degradation | SOS1 degradation ([1]; SW620 cells, 1 μM, 6 hours, immunoblot): 64% | SOS1 degradation ([1]; SW620 cells, 1 μM, 48 hours, immunoblot): 92% | Time-dependent SOS1 degradation ([1]; SW620 cells, 1 μM, different time points): time-dependent | SOS1 degradation (up to) ([1]; maximal degradation reported, CRC cell lines and PDOs): up to 92%
Compound: COc1cc2c(N[C@H](C)c3cc(N)cc(C(F)(F)F)c3)nc(C)nc2cc1OCC(=O)Nc1cccc2c1CN(C1CCC(=O)NC1=O)C2=O (stereo partly drawn) [P7, 2-((4-(((R)-1-(3-amino-S-(trifluoromethyl)phenyl)ethyl)amino)-6-methoxy-2-methylquinazolin-7-yl)oxy)-N-(2-(2,6-dioxopiperidin-3-yl)-1-oxoisoindolin-4-yl)acetamide]
SOS1 degradation compared to SOS1 inhibitor BI3406 and siRNA of SOS1 ([1]; SW620 cells, 6 hours, immunoblot): comparable with that by genetic knockdown | SOS1 expression by IHC (SOS1 degradation) [2]: significant SOS1 degradation at varying degrees
